Test results: patent publication US9815788B2, “Anti-angiogenic compounds” (University College Dublin National University of Ireland, …, priority 2012, dated 2017)

Legend:
[1] = system: retinal blood vessels; assay: Ocular neovascularisation in mouse oxygen-induced retinopathy model; format: in vivo, C57BL/6J mice; details: 5 μM injected intravitreally on P13, culled P17; compared to P17 control
Method: Postnatal day (P) 7 C57BL/6J mice together with their dams were treated in 75% oxygen (hyperoxia) for 5 days causing regression of retinal blood vessels. They were returned to normoxia (relative hypoxia) on P12, causing rapid regrowth of the retinal blood vessels, 5 μM 11B_CC11_HCl, 5 μM 11B_CC16_HCl, 5 μM pazopanib or 2.5 mg/ml avastin was injected intravitreally on P13. The mice were culled on P17, eyes fixed in 4% paraformaldehyde at 4° C. overnight, flat mounted and retinas stained for isolectin (red, stains vasculature).

[2] = biological target: T1, CysLT1 receptor (Homo sapiens, UniProt Q9Y271); assay: CysLT1 calcium mobilisation assay in CHO cells; format: cell-based; details: 0.1 nM LTD4, CHO cells expressing CysLT1, read-out: inhibition of calcium mobilisation (CysLT1 antagonism)
T1 construct: host or cells: CHO cells
T1 sequence (Q9Y271 1-337): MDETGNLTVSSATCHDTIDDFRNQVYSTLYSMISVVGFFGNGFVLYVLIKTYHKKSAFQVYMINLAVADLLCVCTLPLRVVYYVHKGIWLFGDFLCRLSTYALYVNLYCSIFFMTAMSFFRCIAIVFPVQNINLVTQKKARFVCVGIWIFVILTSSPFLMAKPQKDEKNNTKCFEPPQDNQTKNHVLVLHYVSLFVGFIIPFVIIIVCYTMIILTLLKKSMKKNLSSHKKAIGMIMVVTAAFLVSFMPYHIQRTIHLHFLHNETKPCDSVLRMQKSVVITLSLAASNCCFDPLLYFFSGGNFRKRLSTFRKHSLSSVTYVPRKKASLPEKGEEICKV
Method: (§1) FIG. 15 tables the percentage inhibition by compounds 11B_CC11_HCl and 11B_CC16_HCl on the cysteinyl leukotriene pathway in in vitro and ex vivo assays. […] For in vitro cysteinyl leukotriene cell-based assays 11B_CC11_HCl and 11B_CC16_HCl, were tested at 30 μM concentration in duplicate, in a single experiment for their ability to inhibit the calcium mobilisation response of the CysLT1 receptor to 0.1 nM leukotriene D4 in CHO cells over-expressing the CysLT1 receptor or the calcium mobilisation response of the CysLT2 receptor to 30 nM of leukotriene C4 in HEK 293 cells over expressing the CysLT2 receptor.
(§2) Target profiling using Cerep and Eurofins/Panlabs profiling screens was undertaken using 11B_CC11_HCl and 11B_CC16_HCl in order to investigate the mechanism of action. […] Test substance (30 LM)-induced isometrically recorded contraction by 50 percent or more within 5 min, relative to control 3 nM leukotriene D4 response, indicates possible cysteinyl-leukotriene LT1 receptor agonist activity. […] To measure inhibition of cysteinyl leukotriene 1 (CysLT1 [LTD4]) and cysteinyl leukotriene 2 (CysLT2 [LTC4]) receptor activity, calcium mobilisation was measured using Fluor-3-loaded CHO cells (for cysLT1 assays) or HEK-293 cells (for CysLT2 assays) which stably express either the CysLT1 or CysLT2 receptors. […]

[3] = biological target: T2, CysLT2 receptor (Homo sapiens, UniProt Q9NS75); assay: CysLT2 calcium mobilisation assay in HEK 293 cells; format: cell-based; details: HEK293, 30 nM LTC4, HEK-293 cells expressing CysLT2, read-out: inhibition of calcium mobilisation (CysLT2 antagonism)
T2 construct: host or cells: HEK 293 cells
T2 sequence (Q9NS75 1-346): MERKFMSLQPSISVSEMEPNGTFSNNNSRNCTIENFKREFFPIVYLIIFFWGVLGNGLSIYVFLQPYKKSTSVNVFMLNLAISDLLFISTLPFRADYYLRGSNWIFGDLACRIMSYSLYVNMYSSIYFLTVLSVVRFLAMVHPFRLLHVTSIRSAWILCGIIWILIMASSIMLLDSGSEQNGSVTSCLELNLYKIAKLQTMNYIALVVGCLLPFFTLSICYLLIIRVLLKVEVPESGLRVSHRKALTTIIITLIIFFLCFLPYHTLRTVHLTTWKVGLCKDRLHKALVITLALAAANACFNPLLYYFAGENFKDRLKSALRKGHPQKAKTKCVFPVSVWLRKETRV
Method: as §1, §2

inhibition at 30 µM [2]: 137% | inhibition at 30 µM [3]: 41%
Compound: C/C(=C\c1ccccc1O)c1ccc2ccccc2n1.Cl [Compound 11B_CC11_HCl, (E)-2-(2-Quinolin-2-yl-propenyl)-phenol HCl salt]
inhibition of neovascularisation (avascular region as percentage of whole retina) [1]: inhibit neovascularisation
